Source: patent US5637731A (priority 1996, dated 1997)
Values joined by “and” are separate entries in the source; they are usually repeats but may differ in a detail not shown here. Equal entries are not always repeated. Structures can show the parent of a compound that is named as a salt. Where two headings read alike, the source gives them in different places.

Key:
[1] = test system: peripheral acetylcholine-like effects; experiment: Side effect profile: in vivo overt effects (salivation, tremor, diarrhea) after oral administration; design: species or system rat
Source text: The use of the radioligand binding assays (^3 H-QNB and ^3 H-CD) to characterize the hydroxylated oxotremorine derivatives provides a useful first approximation for,the evaluation of the muscarinic agonist-like profile of a test compound. However, in using a prodrug methodology, intrinsic activity will not be observed until in vivo hydrolysis or metabolism to the active compound occurs. Therefore, radioligand binding data, performed on the carbonyl derivatives, will not provide leading information. As a result, the observed overt effects after oral administration to rats of the test carbonyl derivative, relative to its corresponding hydroxylated oxotremorine compound, became the primary in vivo pharmacological measure. These in vivo overt effects are attributed to the peripheral acetylcholine-like effects of the compound, such as salivation, tremor and diarrhea. The in vivo overt effects also providing dosing information for the behavioral tests of cognitive improvement.

[2] = target: muscarinic cholinergic receptor; format: binding, rat; conditions: rat cerebral cortex, ^3 H-QNB 0.25 nM, 25° C., 120 minutes, pH 7.4
[3] = target: muscarinic cholinergic receptor; experiment: [^3 H]-Cis-methyldioxolane (^3 H-CD) Binding Assay (High Affinity); conditions: rat cerebral cortex, ^3 H-CD 1.0 nM, 25° C., 120 minutes, pH 7.4; high affinity agonist binding

SMILES	Side Effect Profile minimum effective dose (MED) ([1]; (rat) po)	Side Effect Profile minimum effective dose (MED) ([1]; (rat) po; listed as R)-1-[4-(Dimethylamino)-2-butynyl]-2-oxo-3-pyrrolidinyl carbonic acid ethyl este) [μ mol/kg]	Ki [2] [µM]	Ki [3] [µM]
CCCCCCCC(=O)O[C@H]1CCN(CC#CCN2CCCC2)C1=O	14 μ mol/kg			
CCOC(=O)O[C@@H]1CCN(CC#CCN(C)C)C1=O [(R)-1-[4-(Dimethylamino)-2-butynyl]-2-oxo-3-pyrrolidinyl carbonic acid ethyl ester]	127 μ mol/kg and 254 μ mol/kg	258		
CCCCOC(=O)O[C@@H]1CCN(CC#CCN2CCCC2)C1=O [(R)-2-Oxo-1-[4-(1-pyrrolidinyl)-2-butynyl]-3-pyrrolidinyl carbonic acid butyl ester]	14 μ mol/kg			
CCCCCCOC(=O)O[C@@H]1CCN(CC#CCN2CCCC2)C1=O [(R)-2-Oxo-1-[4-(1-pyrrolidinyl)-2-butynyl]-3-pyrrolidinyl carbonic acid hexyl ester]	7 μ mol/kg			
CCCC(=O)O[C@@H]1CCN(CC#CCN(C)C)C1=O [(R)-Butanoic acid 1-[4-(dimethylamino)-2-butynyl]-2-oxo-3-pyrrolidinyl ester]	127 μ mol/kg			
CCCC(=O)O[C@@H]1CCN(CC#CCN2CCCC2)C1=O [(R)-Butanoic acid 2-oxo-1-[4-(1-pyrrolidinyl)-2-butynyl]-3-pyrrolidinyl ester]	7.2 μ mol/kg			
CCCCNC(=O)O[C@@H]1CCN(CC#CCN(C)C)C1=O [(R)-Butylcarbamic acid 1-[4-(dimethylamino)-2-butynyl]-2-oxo-3-pyrrolidinyl ester]	> 340 μ mol/kg			
CCCCNC(=O)O[C@@H]1CCN(CC#CCN2CCCC2)C1=O [(R)-Butylcarbamic acid 2-oxo-1-[4-(1-pyrrolidinyl)-2-butynyl]-3-pyrrolidinyl ester]	> 243 μ mol/kg			
CCNC(=O)O[C@@H]1CCN(CC#CCN(C)C)C1=O [(R)-Ethylcarbamic acid 1-[4-(dimethylamino)-2-butynyl]-2-oxo-3-pyrrolidinyl ester]	> 510 μ mol/kg			
CCNC(=O)O[C@@H]1CCN(CC#CCN2CCCC2)C1=O [(R)-Ethylcarbamic acid 2-oxo-1-[4-(1-pyrrolidinyl)-2-butynyl]-3-pyrrolidinyl ester]	28 μ mol/kg			
CCCCCC(=O)O[C@@H]1CCN(CC#CCN(C)C)C1=O [(R)-Hexanoic acid 1-[4-(dimethylamino)-2-butynyl]-2-oxo-3-pyrrolidinyl ester]	255 μ mol/kg			
CCCCCC(=O)O[C@@H]1CCN(CC#CCN2CCCC2)C1=O [(R)-Hexanoic acid 2-oxo-1-[4-(1-pyrrolidinyl)-2-butynyl]-3-pyrrolidinyl ester]	7.0 μ mol/kg			
CCCCCCNC(=O)O[C@@H]1CCN(CC#CCN(C)C)C1=O [(R)-Hexylcarbamic acid 1-[4-(dimethylamino)-2-butynyl]-2-oxo-3-pyrrolidinyl ester]	> 530 μ mol/kg			
CCCCCCNC(=O)O[C@@H]1CCN(CC#CCN2CCCC2)C1=O [(R)-Hexylcarbamic acid 2-oxo-1-[4-(1-pyrrolidinyl)-2-butynyl]-3-pyrrolidinyl ester]	> 450 μ mol/kg			
CCCCCCCC(=O)O[C@@H]1CCN(CC#CCN(C)C)C1=O [(R)-Octanoic acid 1-[4-(dimethylamino)-2-butynyl]-2-oxo-3-pyrrolidinyl ester]	508 μ mol/kg			
CCCCCCCCCC(=O)O[C@H]1CCN(CC#CC[N+](C)(C)C)C1=O [(S)-N,N, N-Trimethyl-4-[2-oxo-3-[(1-oxodecyl)oxy]-1-pyrrolidinyl-2-butyn-1-aminium iodide]			0.003	0.156
CC(C)C(=O)O[C@H]1CCN(CC#CC[N+](C)(C)C)C1=O [(S)-N,N, N-Trimethyl-4-[3-(2-methyl-1-oxopropoxy)-2-oxo-1-pyrrolidinyl]-2-butyn-1-aminium iodide]			64.3	6.96
CS[C@H]1CCN(CC#CC[N+](C)(C)C)C1=O [(S)-N,N, N-Trimethyl-4-[3-(methylthio)-2-oxo1-pyrrolidinyl]-2-butyn-1-aminium iodide]			1.8	0.31
CCCCCCCCOC(=O)O[C@H]1CCN(CC#CC[N+](C)(C)C)C1=O [(S)-N,N, N-Trimethyl-4-[3-[[(octyloxy)carbonyl]oxy]-2-oxo-1-pyrrolidinyl]-2-butyn-1-aminium iodide]			0.1	0.013

SMILES	Side Effect Profile minimum effective dose (MED) ([1]; (rat) po)	Side Effect Profile minimum effective dose (MED) ([1]; (rat) po; listed as R)-1-[4-(Dimethylamino)-2-butynyl]-2-oxo-3-pyrrolidinyl carbonic acid ethyl este) [μ mol/kg]	Ki [2] [µM]	Ki [3] [µM]
CC(C)(C)[Si](C)(C)OC[C@@H]1CCCN1CC#CCNC(=O)C(F)(F)F [(S)-N-[4-[2-[[[(1,1-Dimethylethyl]-dimethylsilyl]oxy]-methyl]-1-pyrrolidinyl]-2-butynyl]-2,2,2-trifluoroacetamide]			> 100	41.4
CCCCCCCCNC(=O)O[C@H]1CC(=O)N(CC#CCN2CCCC2)C1 [(S)-Octylcarbamic acid 2-oxo-1-[4-(1-pyrrolidinyl)-2-butynyl]-4-pyrrolidinyl ester]			0.13	0.35
CCN(CC)CC#CCN [N,N-Diethyl-2-butyne-1,4-diamine dihydrochloride]			> 100	> 100
CN(C)CC#CCN [N,N-Dimethyl-2-butyne-1,4-diamine dihydrochloride]			> 100	20.5
CCN(CC)CC#CCNC(=O)C(F)(F)F [N-[4-(Diethylamino)-2-butynyl]-2,2,2-trifluoroacetamide monohydrochloride]			> 100	4.07
CN(C)CC#CCNC(=O)C(F)(F)F [N-[4-Dimethylamino)-2-butynyl]-2,2,2-trifluoroacetamide monomhydrochloride]			> 100	6.1
CC1CCN(CC#CCN2CCC(O[Si](C)(C)C(C)(C)C)C2)C1=O (stereo not drawn) [[R-(R*,R* and R*,S*)]-1-[4-[3[[(1,1-dimethylethyl)-dimethylsilyl]oxy]-1-pyrrolidinyl-2-butynyl]-3-methyl-2-pyrrolidinone]			> 100	> 100
CC(C)(C)[Si](C)(C)OC[C@H]1CCCN1CC#CCN1CC[C@@H](O)C1=O [[R-(R*,R*)]-1-[4-[2-[[[(1,1-Dimethylethyl)dimethylsilyl]-oxy]methyl]-1-pyrrolidinyl]-2-butynyl]-3-hydroxy-2-pyrrolidinone]			> 100	4.2
CC(=O)O[C@@H]1CCN(CC#CCN2CCC[C@@H]2CO[Si](C)(C)C(C)(C)C)C1=O [[R-(R*,R*)]-3-Acetyloxy)-1-[4-[2-[[[(1,1-dimethylethyl)-dimethylsilyl]oxy]methyl]-1-pyrrolidinyl]-2-butynyl]-2-pyrrolidinone]			> 100	10.1
CC(C)(C)[Si](C)(C)OC[C@@H]1CCCN1CC#CCN1CC[C@@H](O)C1=O [[R-(R*,S*)]-1-[4-[2-[[[(1,1-dimethylethyl)dimethylsilyl]oxy]methyl]-1-pyrrolidinyl]-2-butynyl]-3-hydroxy-2-pyrrolidone]			0.5	0.47
CC(=O)O[C@@H]1CCN(CC#CCN2CCC[C@H]2CO[Si](C)(C)C(C)(C)C)C1=O [[R-(R*,S*)]-3-(Acetoxy)-1-[4-[2-[[[(1,1-dimethylethyl)dimethylsilyl]oxy]methyl]-1-pyrrolidinyl]-2-butynyl]-1]-2-pyrrolidinone]			500	1.7
CC1CCN(CC#CCN2CCCC2CO[Si](C)(C)C(C)(C)C)C1=O (stereo not drawn) [[R-[(R*,R* and R*,S*)]]-1-[4-[2-[[[(1,1-dimethylethyl)dimethylsilyl]oxy]methyl]-1-pyrrolidinyl]-2-butynyl]-3-methyl-2-pyrrolidinone]			2.5	5.6
CC(C)(C)[Si](C)(C)OC[C@@H]1CCCN1CC#CCN1CC[C@H](O)C1=O [[S-(R*,R*)]-1-[4-[2-[[[(1,1-Dimethylethyl)dimethylsilyl]-oxy]methyl]-1-pyrrolidinyl]-2-butynyl]-3-hydroxy-2-pyrrolidinone]			0.4	0.14
CC(=O)O[C@H]1CCN(CC#CCN2CCC[C@H]2CO[Si](C)(C)C(C)(C)C)C1=O [[S-(R*,R*)]-3-(Acetyloxy)-1-[4-[2-[[[(1,1-dimethylethyl)-dimethylsilyl]oxy]methyl]-1-pyrrolidinyl]-2-butynyl]-2-pyrrolidinone]			2.6	0.079
O=C1[C@@H](O)CCN1CC#CCN1CCC[C@H]1CO [[S-(R*,R*)]-3-Hydroxy-1-[4-[2-(hydroxymethyl)-1-pyrrolidinyl]-2-butynyl]-2-pyrrolidinone]			> 100	34.3
CC(C)(C)[Si](C)(C)OC[C@H]1CCCN1CC#CCN1CC[C@H](O)C1=O [[S-(R*,S*)]-1-[4-[2-[[[(1,1-Dimethylethyl)dimethylsilyl]-oxy]methyl]-1-pyrrolidinyl]-2-butynyl]-3-hydroxy-2-pyrrolidinone]			198	1.7
CC(=O)O[C@H]1CCN(CC#CCN2CCC[C@@H]2CO[Si](C)(C)C(C)(C)C)C1=O [[S-(R*,S*)]-3-(Acetyloxy)-1-[4-(2-[[[(1,1-dimethylethyl)dimethylsilyl]oxy]methyl]-1-pyrrolidinyl]-2-butynyl]-2-pyrrolidinone]			> 100	4.2
O=C1[C@@H](O)CCN1CC#CCN1CCC[C@@H]1CO [[S-(R*,S*)]-3-Hydroxy-1-[4-[2-(hydroxymethyl)-1-pyrrolidinyl]-2-butynyl]-2-pyrrolidinone]			> 100	2.6
